Where two headings read alike, the source gives them in different places.
What was measured:
[1] = system: SART stressed mouse; assay: Test for analgesic effect (1): SART stressed mouse, modified Randall-Selitto tail pressure method; format: in vivo, mice; settings: for Analgesic coefficient: 25 ng per mouse into the lateral ventricle, 30 minutes after administration, pain threshold of test group divided by that of SART control group, 1.0 = no effect
[2] = system: mice; assay: Test for analgesic effect (4): acetic acid writhing test; format: in vivo; settings: oral single dose; 0.7% acetic acid i.p. 25 minutes after; writhing numbers during 10 minutes
Method: The compounds of the present invention or the carboxylic acid type thereof were orally administered to mice and a test for an analgesic effect was carried out by means of an acetic acid writhing test. As to the test animals, male mice of ddY strain of four weeks age were subjected to a preliminary breeding and they were used where one group comprised ten mice. Each of the compound of the present invention or the carboxylic acid type thereof as a test substance was orally administered in a single dose while, to a control group, distilled water (water for injection) was administered similarly. After 25 minutes from the administration of the test substance, a 0.7% acetic acid/physiological saline was intraperitoneally administered at the dose of 10 mL/kg. From 5 minutes thereafter, writhing numbers during 10 minutes were counted and a suppressive rate for each mouse was calculated according to the following formula. Suppressive Rate (%)=[(Mean writhing numbers of the control group)−(Writhing numbers of each mouse)]÷[Mean writhing numbers of the control group]×100

[3] = system: Chung model rat; assay: Test for analgesic effect (2)/(3): Chung model rat, mechanical allodynia by von Frey filament; format: in vivo, rats
Method: A test for analgesic effect was conducted using a Chung model rat which is a neuropathic pain model. As to the test animal, male rats of Wistar strain of nine weeks age were used and model rats were prepared in accordance with the method of Kim and Chung (Pain, vol. 50, pages 355 to 363, 1992). Thus, under anesthetization with pentobarbital (40 mg/kg, intraperitoneal administration), rat L5 spinal nerve was exposed and L5 dorsal root ganglion periphery side was strongly ligated using 5-0 silk yarn. The animals were placed in a transparent acrylate cage whose bottom was made of wire net, a 50% reaction threshold value was calculated by an up-down method using a von Frey filament (manufactured by North Coast Medical Inc.) according to the methods of Chaplan, et al. (J. Neurosci. Method, vol. 53, pages 55 to 63, 1994) and by Lee, et al. (J. Neurophysiol., vol. 81, pages 2226 to 2233, 1999) and measurement of allodynia was conducted. Before injury of spinal nerve, the 50% reaction threshold value was measured twice and the animals where the threshold value was outside the standard were excluded from the operation for spinal nerve injury. […] Those test animals were made into groups of seven animals so that the mean value of 50% reaction threshold after 28 days from the nerve injury as an index became nearly the same in each group.
The carboxylic acid type of the compounds of the present invention as a test substance was intraperitoneally administered in a single dose while, a 0.5% CMC-Na/physiological saline solution was administered similarly to a nerve injury control group. After 30 minutes from the administration of the test substance, allodynia was measured to calculate a 50% reaction threshold value. With regard to a significance test, Paired t-test was conducted for comparison between before and after the nerve injury and Dunnett's multiple comparison test was used for comparison among multiple groups of the nerve injury control group and the test substance administration group.
According to the same manner as in the above Test for Analgesic Effect (2), each of Compound 12 of the present invention (3 mg/kg, 10 mg/kg) and Carboxylic acid substance A of the compound of the present invention (10 mg/kg) was orally administered in a single dose as the test substance to Chung model rats. Allodynia after 0, 15, 30, 60 and 120 minutes from the administration was measured for each of the test substance administration group and the nerve injury control group whereupon a 50% reaction threshold value was calculated.

[4] = Test of kinetics in blood of rats; format: in vivo
Method: Each of the compound of the present invention and the carboxylic acid type A thereof was dissolved in DMSO, diluted with water. A sample solution (1% DMSO solution) made into 2 mg/mL was orally administered in a single dose to the fasted Wistar strain SPF male rats of seven weeks age using a stomach tube (10 mg/5 mL/kg). At the stages of 0.25, 0.5, 1, 2, 4 and 8 hour(s) after the administration, about 150 μL of the blood was collected from tail vein using a capillary to which heparin was added and said capillary was centrifuged to collect the plasma. Protein was removed from the plasma sample and the supernatant liquid was diluted to prepare each sample solution for the measurement.

[5] = set-up: species or system cynomolgus monkeys; settings: cynomolgus monkey, in vivo, 30 mg/kg
Method: Each of the compound of the present invention and Carboxylic acid type A thereof dissolved or suspended in a hydrochloric acid solution was diluted with water. […] At the stages of before the administration and of 0.25, 0.5, 1, 2, 4, 8 and 24 hour(s) after the administration, the blood was collected from femoral vein using a syringe to which heparin was added followed by subjecting to centrifugation to collect the plasma. Collection of the blood was conducted for three times in total where one collection was done with each blank term of six days for each test substance. Concentration of Carboxylic acid type A in each of the collected plasma samples was quantified by an LC-MS and Cmax (maximum drug concentration in plasma) and AUC (area under blood concentration time curve; 0 to ∞ hour(s)) of the compound of the present invention and Carboxylic acid type A thereof were calculated.

Compound	AUC ([4]; rat, in vivo, po, 10 mg/kg)	Cmax ([4]; rat, in vivo, po, 10 mg/kg)	further results
CC=CC(=O)N[C@@H](Cc1cncn1C)C(=O)O [Carboxylic acid type B, N^α-crotonoyl-N^π-methyl-L-histidine]			Analgesic coefficient [1]: 1.23
CCn1cncc1C[C@H](NC(=O)C=Cc1ccccc1)C(=O)O [Carboxylic acid type C, N^α-3-phenylpropenoyl-N^π-ethyl-L-histidine]			Suppressive Rate (%) [2]: 27.7%; Analgesic coefficient [1]: 1.14
C=CC(=O)N[C@@H](Cc1cncn1Cc1ccccc1)C(=O)O [Carboxylic acid type D, N^α-acryloyl-N^π-benzyl-L-histidine]			Suppressive Rate (%) [2]: 37.9%; threshold as compared with the nerve injury control group ([3]; intraperitoneal single dose): significant increase in the threshold; 50% reaction threshold value ([3]; intraperitoneally 400 μg/kg single dose, 30 minutes after administration): 7.32 g
CC(C)=CC(=O)N[C@@H](Cc1cncn1C)C(=O)O [Carboxylic acid type E, N^α-3-metylcrotonoyl-N^π-methyl-L-histidine]			Suppressive Rate (%) [2]: 17.8%
C=CC(=O)N[C@@H](Cc1cncn1C)C(=O)OCC [Compound 2, N^α-acryloyl-N^π-methyl-L-histidine ethyl ester]	3468.0 ng·h/mL	2719.4 ng/mL	
C=CC(=O)N[C@@H](Cc1cncn1C)C(=O)OCC(C)(C)C [Compound 3, N^α-acryloyl-N^π-methyl-L-histidine neopentyl ester]			AUC ([4]; rats, oral 10 mg/kg single dose, 0 to 8 hours, Carboxylic acid type A quantified in plasma, values converted to dose equimolar to Carboxylic acid type A): 2373.9 ng·h/mL; Cmax ([4]; rats, oral 10 mg/kg single dose, Carboxylic acid type A quantified in plasma, values converted to dose equimolar to Carboxylic acid type A): 2074.0 ng/mL
C=CC(=O)N[C@@H](Cc1cncn1C)C(=O)OCCCC [Compound 6, N^α-acryloyl-N^π-methyl-L-histidine butyl ester]	2774.6 ng·h/mL	2407.2 ng/mL	
C=CC(=O)N[C@@H](Cc1cncn1C)C(=O)OCCc1ccc(C)cc1 [Compound 14, N^α-acryloyl-N^π-methyl-L-histidine 4-methylphenethyl ester]			AUC [5]: 5133.2 ng·h/mL; Cmax [5]: 779.2 ng/mL
C=CC(=O)N[C@@H](Cc1cncn1C)C(=O)OCCc1ccc(Cl)cc1 [Compound 15, N^α-acryloyl-N^π-methyl-L-histidine 4-chlorophenethyl ester]	3620.6 ng·h/mL	2391.8 ng/mL	
Cl.Cn1cncc1C[C@H](NC(=O)C=Cc1ccccc1O)C(=O)OCCc1ccccc1 [Compound 26, N^α-[3-(2-hydroxyphenyl)acryloyl]-N^π-methyl-L-histidine phenethyl ester hydrochloride]			Suppressive Rate (%) [2]: 23.8%
NCCC(=O)N[C@@H](Cc1cnc[nH]1)C(=O)O [carnosine, β-ananyl-L-histidine, reference compound]			analgesic action ([1]; administration into the lateral ventricle): no significant analgesic action

The next lines start with results.

AUC ([4]; rat, in vivo, po, 10 mg/kg)	Cmax ([4]; rat, in vivo, po, 10 mg/kg)	Compound	further results
2027.6 ng·h/mL	1623.9 ng/mL	C=CC(=O)N[C@@H](Cc1cncn1C)C(=O)OC [Compound 1, N^α-acryloyl-N^π-methyl-L-histidine methyl ester]	
2641.8 ng·h/mL	2144.0 ng/mL	C=CC(=O)N[C@@H](Cc1cncn1C)C(=O)OCCC(C)C [Compound 4, N^α-acryloyl-N^π-methyl-L-histidine isopentyl ester]	
3264.2 ng·h/mL	2761.6 ng/mL	C=CC(=O)N[C@@H](Cc1cncn1C)C(=O)OCCC(C)(C)C [Compound 5, N^α-acryloyl-N^π-methyl-L-histidine 3,3-dimethylbutyl ester]	
3750.7 ng·h/mL	2671.7 ng/mL	C=CC(=O)N[C@@H](Cc1cncn1C)C(=O)OCc1ccc(C)cc1 [Compound 9, N^α-acryloyl-N^π-methyl-L-histidine 4-methylbenzyl ester]	
3747.0 ng·h/mL	2579.9 ng/mL	C=CC(=O)N[C@@H](Cc1cncn1C)C(=O)OCc1ccc(Cl)cc1 [Compound 10, N^α-acryloyl-N^π-methyl-L-histidine 4-chlorobenzyl ester]	
4234.6 ng·h/mL	2207.4 ng/mL	C=CC(=O)N[C@@H](Cc1cncn1C)C(=O)OCc1ccc(C(C)(C)C)cc1 [Compound 11, N^α-acryloyl-N^π-methyl-L-histidine 4-tert-butylbenzyl ester]	
3971.6 ng·h/mL	3111.6 ng/mL	C=CC(=O)N[C@@H](Cc1cncn1C)C(=O)OCCc1ccccc1 [Compound 12, N^α-acryloyl-N^π-methyl-L-histidine phenethyl ester]	AUC [5]: 8099.0 ng·h/mL; Cmax [5]: 4088.2 ng/mL; anti-allodynia action as compared with the nerve injury control group ([3]; oral single dose (Compound 12: 3 and 10 mg/kg; Carboxylic acid type A: 10 mg/kg), 15, 30 and 60 minutes after administration, FIG. 1): significant anti-allodynia action; anti-allodynia action compared with Carboxylic acid type A in the same dose ([3]; oral, 10 mg/kg): stronger anti-allodynia action
4058.3 ng·h/mL	3163.4 ng/mL	C=CC(=O)N[C@@H](Cc1cncn1C)C(=O)OCCc1ccc(OC)cc1 [Compound 13, N^α-acryloyl-N^π-methyl-L-histidine 4-methoxyphenethyl ester]	
3601.8 ng·h/mL	2562.7 ng/mL	C=CC(=O)N[C@@H](Cc1cncn1C)C(=O)OCCc1ccc(C(C)(C)C)cc1 [Compound 16, N^α-acryloyl-N^π-methyl-L-histidine 4-tert-butylphenethyl ester]	
2704.9 ng·h/mL	2044.3 ng/mL	C=CC(=O)N[C@@H](Cc1cncn1C)C(=O)OC(C)OC(=O)OC1CCCCC1 (stereo partly drawn) [Compound 17, N^α-acryloyl-N^π-methyl-L-histidine 1-(cyclohexyloxycarbonyloxy)ethyl ester]	
2614.2 ng·h/mL	1495.3 ng/mL	C=CC(=O)N[C@@H](Cc1cncn1C)C(=O)OC(c1ccccc1)c1ccccc1 [Compound 24, N^α-acryloyl-N^π-methyl-L-histidine diphenylmethyl ester]	

Source: US8324261B2, “Histidine derivatives” (Nippon Zoki Pharmaceutical Co., Ltd., priority 2007, dated 2012)
